Laboratory results: US11786533B2, “Use of EZH2 inhibitors for treating cancer” (Epizyme, Inc., priority 2016, dated 2023)

Experiments:
Animal models = assay: In vivo efficacy in animal models
[1] = system: genetically defined cancer cells; assay: Target methyl mark inhibition and killing of cancer cells in vitro; type: cell-based
Oral bioavailability = type: in vivo

oral bioavailability (Oral bioavailability): orally bioavailable
SMILES: CCN(c1cc(-c2ccc(CN3CCOCC3)cc2)cc(C(=O)NCc2c(C)cc(C)[nH]c2=O)c1C)C1CCOCC1 [Compound 44]
in vivo efficacy following inhibition of target methyl mark (Animal models): sustained in vivo efficacy
target methyl mark inhibition resulting in killing of cancer cells [1]: killing of genetically defined cancer cells in vitro
